Results on 1 compound are retold here after paper PMC3806803 (PLoS ONE, 2013).

Experiment [1] addresses H7 HA (recombinant) (Influenza A virus (A/Netherlands/219/2003(H7N7)), UniProt Q6VMK1).
Experiment [2] concerns the target H3 HA (recombinant) (Influenza A virus (A/Brisbane/10/2007(H3N2)), UniProt A8W8K8).
Experiment [3] deals with H7 HA (recombinant) (Influenza A virus (A/Netherlands/219/2003(H7N7)), UniProt Q6VMK1). This is another data set of the same source.

As for `CC(C)(C)c1cc(O)ccc1O` [TBHQ], the “midpoint pH of proteolysis susceptibility with TBHQ” value in experiment [1] was ~ 4.6 pH. Besides, the “WaterLOGSY and STD NMR; competition with antibody F49” value in experiment [2] was “NMR experiment clearly indicates that TBHQ binds to H3 HA”; in experiment [3] it was “TBHQ binds to H7 HA and, based on the competition NMR experiment”.
